Experimental data published in patent US20140179664A1, “Heterocyclyl Pyrimidine Analogues As JAK Inhibitors” (Cellzome Limited, priority 2011, published 2014).

Test system: STAT5 phosphorylation downstream of JAK3 in human YT cells
Assay: pSTAT5 cell assay (IL-2 stimulated YT cells, AlphaScreen)
Assay type: cell-based
Conditions: IL-2 stimulation, read-out: Inhibition values (IC50) pSTAT5
From the text: STAT5 phosphorylation represents one of the proximal events in the signalling cascade downstream of JAK3 activation. Therefore STAT5 phosphorylation is an appropriate readout to assess the mechanistic effect of JAK3 inhibition. Stimulation of human YT cells, an NK-like cell line, with interleukin-2 (IL-2) results in phosphorylation of STAT5 at tyrosine residue 694 (Tyr694) that can be quantitatively measured by immunodetection with specific antibodies and an appropriate detection method, in this case AlphaScreen assay technology.
Human YT cells were grown in RPMI medium (Lonza, BE12-167) with 2 mM L-Glutamine (Invitrogen, 25030-024) and 10% heat-inactivated FBS (Invitrogen, 10106-169) and kept in a humidified incubator (37° C., 5% CO2). Cells were harvested by centrifugation, washed once with HBSS (Invitrogen, 14180-046), resuspended in HBSS at 1.5×10^6 cells/ml and 0.9×10^4 cells were seeded in 6 μl per well in a 96 well White plate (PerkinElmer, 6005569).
Test compounds were dissolved in DMSO and a 1:3 dilution series (9 steps) was prepared. To generate a dose response curve, 3 μl of fourfold concentrated compound in 4% DMSO/HBSS were added to each cell sample in the 96 well plate resulting in a final DMSO concentration of 1% DMSO. Cells were incubated for one hour in a humidified incubator (37° C., 5% CO2). To each well 3 μl of a fourfold concentrated IL-2 solution (Recombinant human IL-2, Peprotech 200-02; 120 nM solution in HBSS) was added and incubated for 30 minutes at room temperature. Cells were lysed by adding 3 μl of 5× lysis buffer (SureFire lysis buffer; Perkin Elmer, TGRS5S10K) and incubated for 10 minutes at room temperature with gentle shaking
For signal detection by AlphaScreen® technology the SureFire phospho-STAT5 (Tyr694/Tyr699) kit was used according to instructions provided by the manufacturer (Perkin Elmer, TGRS5S10K). Acceptor beads were added as recommended by the manufacturer (Reactivation buffer/Activation buffer/Acceptor beads at a ratio of 40:10:1) and incubated at room temperature for 1.5 hours with gentle shaking Then donor beads were added as recommended (Dilution buffer/Donor beads at a ratio of 20:1) and incubated at room temperature for 1.5 hours with gentle shaking Plates were read on an Envision instrument (Perkin Elmer) with the AlphaScreen protocol. Data were analysed in BioAssay using the nonlinear regression for a sigmoidal dose-response with a variable slope.

IC50 | Structure (SMILES)
0.25 to 1 µM | Cn1cc(Nc2ncc(Cl)c(N[C@H](CO)c3ccccc3)n2)cn1 [Compound 4]
0.25 to 1 µM | OCCn1cc(Nc2ncc(Cl)c(N[C@H](CO)c3ccccc3)n2)cn1 [Compound 9]
< 0.25 µM | OC[C@@H](Nc1nc(Nc2cnn(CC(F)F)c2)ncc1Cl)c1ccccc1F [Compound 165]
